From publication PMC6695747, “Primaquine and Chloroquine Fumardiamides as Promising Antiplasmodial Agents” (Molecules, 2019)
Where two headings read alike, the source gives them in different places.

How the values were obtained:
[1] = system: P. falciparum Pf3D7 (CQ-sensitive) erythrocytic stages; assay: In vitro drug sensitivity assay (HRP2-ELISA) against erythrocytic stages, strain 3D7; type: cell-based; conditions: Plasmodium falciparum, 72 h, read-out: IC50 Pf3D7
Description: (§1) Antiplasmodial activity of fumardiamides 1–6 and 11–16 was tested in a drug sensitivity assay against two laboratory P. falciparum strains (3D7—CQ-sensitive, and Dd2—CQ-resistant), as previously described, using the histidine-rich protein 2 (HRP2) assay. In brief, 96-well plates were pre-coated with the tested compounds in a three-fold dilution before ring stage parasites were added in complete culture medium at a hematocrit of 1.5% and a parasitaemia of 0.05%. After three days of incubation at 37 °C, 5% CO2, and 5% oxygen, plates were frozen until analyzed by HRP2-ELISA. All compounds were evaluated in duplicate in at least two independent experiments. The IC50 was determined by analysing the nonlinear regression of log concentration-response curves using the drc-package v0.9.0 of R v2.6.1 [27].

[2] = system: P. falciparum PfDd2 (CQ-resistant) erythrocytic stages; assay: In vitro drug sensitivity assay (HRP2-ELISA) against erythrocytic stages, strain Dd2; type: cell-based; conditions: Plasmodium falciparum, 72 h, read-out: IC50 PfDd2
Description: as §1

[3] = system: P. berghei hepatic stages; assay: In vitro activity against P. berghei hepatic stages (luciferase parasite load in Huh7 cells); type: cell-based; conditions: Plasmodium berghei, Huh-7, read-out: IC50 P. bergei
Description: In vitro activity of the tested compounds against the liver stage of P. berghei infection was assessed as previously described. […] Next, 10 mM stock solutions of test compounds were prepared in DMSO and were serially diluted in infection medium, i.e., culture medium supplemented with gentamicin (50 μg/mL) and amphotericin B (0.8 μg/mL), in order to obtain the test concentrations.
To assess the effect of each compound concentration in cell viability, at 46 hours post-infection (hpi), cultures were incubated with Alamar Blue (Thermo Fisher Scientific, Waltham, MA, USA), according to the manufacturer’s recommendations. Parasite load was then assessed by the bioluminescence assay (Biotium, Fremont, CA, USA), using the multi-plate reader Infinite M200 (Tecan, Männedorf, Switzerland). Nonlinear regression analysis was employed to fit the normalized results of the dose–response curves, and IC50 values were determined using GraphPad Prism 6.0 (GraphPad Software, La Jolla California USA).

[4] = system: MCF-7 (breast adenocarcinoma); assay: Cytotoxicity MTT assay, MCF-7; type: cell-based; conditions: Homo sapiens, read-out: IC50 MCF-7
Description: (§2) The experiments were carried out on 2 human cell lines: MCF-7 (breast carcinoma) and HEK293T (embryonic kidney). MCF-7 and HEK293T cells were cultured as monolayers and maintained in Dulbecco’s modified Eagle medium (DMEM), supplemented with 10% fetal bovine serum (FBS), 2 mM L-glutamine, 100 U/mL penicillin, and 100 μg/mL streptomycin in a humidified atmosphere with 5% CO2 at 37 °C. The panel cell lines were inoculated in parallel onto a series of standard 96-well microtiter plates on day 0, at 1 × 10^4 to 3 × 10^4 cells/mL, depending on the doubling time of a specific cell line. Test compounds were then added in five 10-fold dilutions (10^−8 to 10^−4 M) alone or in combination with 6-AN (c = 1 µM) and incubated for a further 72 hours. Working dilutions were freshly prepared on the day of the testing.
(§3) After 72 hours of incubation, the cell growth rate was evaluated by performing the MTT assay. The absorbance was directly proportional to cell viability. Each test point was performed in quadruplicate in three individual experiments. The IC50 values were calculated from the dose–response curves using linear regression analysis. Each result is a mean value from at least two separate experiments.

[5] = system: HEK293T (non-tumour embryonic kidney); assay: Cytotoxicity MTT assay, HEK293T; type: cell-based; conditions: Homo sapiens, HEK-293T, read-out: IC50 HEK293T
Description: as §2, §3

[6] = parameters: method as in PMID 24360369; conditions: cited from earlier work
[7] = erythrocytic stages, CQ-sensitive strain, three days of incubation, HRP2-ELISA
[8] = erythrocytic stages, CQ-resistant strain, three days of incubation, HRP2-ELISA

Compound	IC50 [1, 7]	IC50 [2, 8]	IC50 [3]	also measured
O=C(/C=C/C(=O)Nc1cccc(C(F)(F)F)c1)NCCCCNc1ccnc2cc(Cl)ccc12 [Compound 15, (2E)-N’-{4-[(7-chloroquinolin-4-yl)amino]butyl}-N-[3-(trifluoromethyl)phenyl]but-2-enediamide]	194 nM	3.22 µM	–	–
COc1cc(NC(C)CCCNC(=O)/C=C/C(=O)Nc2ccc(Cl)cc2)c2ncccc2c1 (stereo not shown) [Compound 4]	> 13000 nM	> 13 µM	390 ± 10 nM	–
COc1cc(NC(C)CCCNC(=O)/C=C/C(=O)Nc2ccc(C(F)(F)F)cc2)c2ncccc2c1 (stereo not shown) [Compound 6]	13000 nM	18.4 µM	110 ± 20 nM	IC50 ([4]; MCF7, alone, 72 hours, MTT): ≥ 100 µM; IC50 ([5]; alone, 72 hours, MTT): ≥ 100 µM
CCN(CC)CCCC(C)Nc1ccnc2cc(Cl)ccc12 (stereo not shown) [CQ, chloroquine]	–	–	–	IC50 [1]: 3.7 nM; IC50 [2]: 0.241 µM
O=C(/C=C/C(=O)Nc1ccc(C(F)(F)F)cc1)NCCCCNc1ccnc2cc(Cl)ccc12 [Compound 16, (2E)-N’-{4-[(7-chloroquinolin-4-yl)amino]butyl}-N-[4-(trifluoromethyl)phenyl]but-2-enediamide]	35 nM	0.379 µM	–	melting point: 270 °C (dec.)
COc1cc(NC(C)CCCNC(=O)/C=C/C(=O)Nc2cccc(Cl)c2)c2ncccc2c1 (stereo not shown) [Compound 3]	> 13000 nM	13.6 µM	270 ± 60 nM	–
O=C(/C=C/C(=O)Nc1cccc(Cl)c1)NCCCCNc1ccnc2cc(Cl)ccc12 [Compound 13, (2E)-N-(3-chlorophenyl)-N’-{4-[(7-chloroquinolin-4-yl)amino]butyl}but-2-enediamide]	83 nM	6.96 µM	–	–
O=C(/C=C/C(=O)Nc1ccc(Cl)cc1)NCCCCNc1ccnc2cc(Cl)ccc12 [Compound 14, (2E)-N-(4-chlorophenyl)-N’-{4-[(7-chloroquinolin-4-yl)amino]butyl}but-2-enediamide]	35 nM	0.89 µM	–	melting point: 237 °C (dec.)
NC(=O)c1ccc(N)nc1 [Compound 6-AN, 6-aminonicotinamide, reference compound]	–	–	–	IC50 ([4]; MCF7, 72 h): 2 ± 0.3 µM; IC50 ([5]; 72 h): 10 ± 7 µM
O=C(/C=C/C(=O)Nc1ccc(F)cc1)NCCCCNc1ccnc2cc(Cl)ccc12 [Compound 12, (2E)-N’-{4-[(7-chloroquinolin-4-yl)amino]butyl}-N-(4-fluorophenyl)but-2-enediamide]	67 nM	1.88 µM	–	melting point: 239 °C (dec.)
COc1cc(NC(C)CCCNC(=O)/C=C/C(=O)Nc2cccc(F)c2)c2ncccc2c1 (stereo not shown) [Compound 1]	13800 nM	20 µM	–	–
O=C(/C=C/C(=O)Nc1cccc(F)c1)NCCCCNc1ccnc2cc(Cl)ccc12 [Compound 11, (2E)-N’-{4-[(7-chloroquinolin-4-yl)amino]butyl}-N-(3-fluorophenyl)but-2-enediamide]	144 nM	7.02 µM	–	–
COc1cc(NC(C)CCCN)c2ncccc2c1 (stereo not shown) [PQ, primaquine]	1990 nM	1.82 µM	8400 ± 3400 nM	–
COc1cc(C)c2c(Oc3cccc(C(F)(F)F)c3)c(OC)cc(NC(C)CCCN)c2n1 (stereo not shown) [TQ, Tafenoquine]	–	–	–	elimination half-life [6]: approximately 15 days
COc1cc(NC(C)CCCNC(=O)/C=C/C(=O)Nc2ccc(F)cc2)c2ncccc2c1 (stereo not shown) [Compound 2]	7740 nM	> 13 µM	–	–
COc1cc(NC(C)CCCNC(=O)/C=C/C(=O)Nc2cccc(C(F)(F)F)c2)c2ncccc2c1 (stereo not shown) [Compound 5]	13900 nM	10.7 µM	270 ± 80 nM	IC50 ([4]; MCF7, alone, 72 hours, MTT): ≥ 100 µM; IC50 ([5]; alone, 72 hours, MTT): ≥ 100 µM
